Assay results: PubChem BioAssay (NCI)
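Cells were grown in 96-well plates and exposed to each compound for 48 hours at five concentrations; endpoints were interpolated linearly between bracketing concentrations, or set to the highest concentration if not reached. GI50 is the concentration that inhibits growth by half. At the TGI there is no net growth.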

Tests used:
Assay in all cases: NCI anticancer screen, dose series, 48 h
BT-549 breast = tested on: BT-549 breast
EKVX NSCLC = tested on: EKVX NSCLC
HL-60(TB) leukemia = tested on: HL-60(TB) leukemia
M14 melanoma = tested on: M14 melanoma
MDA-N = tested on: MDA-N
OVCAR-3 ovarian = tested on: OVCAR-3 ovarian
PC-3 prostate = tested on: PC-3 prostate
SW-620 colon = tested on: SW-620 colon
DLD-1 colon = tested on: DLD-1 colon
DMS 273 small cell lung = tested on: DMS 273 small cell lung
KM20L2 colon = tested on: KM20L2 colon
HOP-18 NSCLC = tested on: HOP-18 NSCLC
SNB-78 CNS = tested on: SNB-78 CNS

SMILES: CCSCCC(N)C(=O)O (configuration not stated)
- TGI (BT-549 breast): > 100 µM
- TGI (EKVX NSCLC): > 100 µM
- TGI (HL-60(TB) leukemia): > 100 µM
- TGI (M14 melanoma): > 100 µM
- TGI (MDA-N): > 100 µM
- TGI (OVCAR-3 ovarian): > 100 µM
- TGI (PC-3 prostate): > 100 µM
- TGI (SW-620 colon): > 100 µM

SMILES: CCOC(=O)CSc1nc(N)c2c(-c3ccc(OC)c(OC)c3)c3c(nc2n1)CCCC3
- TGI (BT-549 breast): > 100 µM
- TGI (EKVX NSCLC): > 100 µM
- TGI (HL-60(TB) leukemia): > 100 µM
- TGI (M14 melanoma): > 100 µM
- TGI (MDA-N): > 100 µM
- TGI (OVCAR-3 ovarian): > 100 µM
- TGI (PC-3 prostate): > 100 µM
- TGI (SW-620 colon): > 100 µM

SMILES: CC(=O)Nc1cc([As](=O)(O)O)ccc1O
- TGI (BT-549 breast): > 100 µM
- TGI (EKVX NSCLC): > 100 µM
- TGI (HL-60(TB) leukemia): > 100 µM
- TGI (M14 melanoma): > 100 µM
- TGI (MDA-N): > 100 µM
- TGI (OVCAR-3 ovarian): > 100 µM
- TGI (PC-3 prostate): > 100 µM
- TGI (SW-620 colon): > 100 µM

SMILES: CCN(CC)CC(C)Nc1ccc([N+](=O)[O-])c2sc3ccccc3c(=O)c12 (configuration not stated)
- GI50 (BT-549 breast): 5.03 µM
- TGI (BT-549 breast): 21.4 µM
- GI50 (EKVX NSCLC): 2.79 µM
- TGI (EKVX NSCLC): 23.4 µM
- GI50 (HL-60(TB) leukemia): 2.82 µM
- TGI (HL-60(TB) leukemia): 11.7 µM
- GI50 (M14 melanoma): 1.68 µM
- TGI (M14 melanoma): 4.03 µM
- GI50 (OVCAR-3 ovarian): 2.88 µM
- TGI (OVCAR-3 ovarian): 11.5 µM
- GI50 (PC-3 prostate): 2.52 µM
- TGI (PC-3 prostate): > 100 µM
- GI50 (SW-620 colon): 1.25 µM
- TGI (SW-620 colon): 4.13 µM

SMILES: ONc1ncnc2nc[nH]c12
- TGI (DLD-1 colon): > 100 µM
- TGI (DMS 273 small cell lung): > 100 µM
- TGI (HL-60(TB) leukemia): > 100 µM
- TGI (KM20L2 colon): > 100 µM
- TGI (M14 melanoma): > 100 µM
- TGI (OVCAR-3 ovarian): > 100 µM
- TGI (SW-620 colon): > 100 µM

SMILES: O=C(CCCCCCC(=O)Nc1ccc(N(CCCl)CCCl)cc1)NO
- GI50 (BT-549 breast): 5.83 µM
- TGI (BT-549 breast): 29.2 µM
- GI50 (EKVX NSCLC): 11.5 µM
- TGI (EKVX NSCLC): 37.9 µM
- GI50 (M14 melanoma): 2.43 µM
- TGI (M14 melanoma): 10.7 µM
- GI50 (OVCAR-3 ovarian): 1.92 µM
- TGI (OVCAR-3 ovarian): 6.66 µM
- GI50 (PC-3 prostate): 3.7 µM
- TGI (PC-3 prostate): > 100 µM
- GI50 (SW-620 colon): 1.71 µM
- TGI (SW-620 colon): 22 µM

SMILES: Cc1nc(N)nc(N)c1-c1ccc(Cl)c(Cl)c1
- TGI (BT-549 breast): > 100 µM
- TGI (DLD-1 colon): 55 µM
- TGI (DMS 273 small cell lung): > 100 µM
- TGI (EKVX NSCLC): > 100 µM
- TGI (HL-60(TB) leukemia): > 88.1 µM
- TGI (HOP-18 NSCLC): > 100 µM
- TGI (KM20L2 colon): > 100 µM
- TGI (M14 melanoma): > 100 µM
- TGI (MDA-N): > 100 µM
- TGI (OVCAR-3 ovarian): > 49 µM
- TGI (PC-3 prostate): > 100 µM
- TGI (SNB-78 CNS): > 100 µM
- TGI (SW-620 colon): > 100 µM

SMILES: COc1cc(C2C(C(=O)O)=C(CO)Oc3cc4c(cc32)OCO4)cc(OC)c1O (configuration not stated)
- TGI (DLD-1 colon): > 100 µM
- TGI (DMS 273 small cell lung): > 100 µM
- TGI (EKVX NSCLC): > 100 µM
- TGI (HL-60(TB) leukemia): > 100 µM
- TGI (HOP-18 NSCLC): > 100 µM
- TGI (KM20L2 colon): > 100 µM
- TGI (M14 melanoma): > 100 µM
- TGI (OVCAR-3 ovarian): > 100 µM
- TGI (SNB-78 CNS): > 100 µM
- TGI (SW-620 colon): > 100 µM

SMILES: CCS(=O)(=O)Nc1ccc(Nc2c3ccccc3nc3ccccc23)c(OC)c1
- TGI (DLD-1 colon): 17.3 µM
- TGI (DMS 273 small cell lung): 1.85 µM
- TGI (HL-60(TB) leukemia): 0.13 µM
- TGI (HOP-18 NSCLC): 7.92 µM
- TGI (KM20L2 colon): 6.44 µM
- TGI (OVCAR-3 ovarian): 6.05 µM
- TGI (SNB-78 CNS): 18.4 µM
- TGI (SW-620 colon): 7.13 µM

SMILES: CNC(=O)OC(C)CN1c2ccccc2Sc2ccc(Cl)cc21 (configuration not stated)
- TGI (EKVX NSCLC): > 10 µM
- TGI (HL-60(TB) leukemia): > 10 µM
- TGI (M14 melanoma): > 10 µM
- TGI (MDA-N): > 10 µM
- TGI (OVCAR-3 ovarian): > 10 µM
- TGI (PC-3 prostate): > 10 µM
- TGI (SW-620 colon): > 10 µM

SMILES: C[C@]12CC[C@@H]3c4ccc(OP(=O)(O)O)cc4CC[C@H]3[C@@H]1CCC2=O
- TGI (BT-549 breast): > 100 µM
- TGI (EKVX NSCLC): > 100 µM
- TGI (HL-60(TB) leukemia): > 100 µM
- TGI (M14 melanoma): > 100 µM
- TGI (MDA-N): > 100 µM
- TGI (OVCAR-3 ovarian): > 100 µM
- TGI (PC-3 prostate): > 100 µM
- TGI (SW-620 colon): > 100 µM

SMILES: CC1SC(c2ccccc2)N(CCc2cccs2)C1=O (configuration not stated)
- GI50 (BT-549 breast): 3.35 µM
- TGI (BT-549 breast): 12.9 µM
- GI50 (EKVX NSCLC): 2.77 µM
- TGI (EKVX NSCLC): 12.7 µM
- GI50 (HL-60(TB) leukemia): 2.85 µM
- TGI (HL-60(TB) leukemia): 8.67 µM
- GI50 (OVCAR-3 ovarian): 3.03 µM
- TGI (OVCAR-3 ovarian): 13.3 µM
- GI50 (PC-3 prostate): 2.68 µM
- TGI (PC-3 prostate): 15.7 µM
- GI50 (SW-620 colon): 4.6 µM
- TGI (SW-620 colon): 18.3 µM

SMILES: Cc1cccc2nc3c(C(=O)NCCN(C)C)cccc3cc12
- TGI (DLD-1 colon): 7.78 µM
- TGI (DMS 273 small cell lung): 3.57 µM
- TGI (EKVX NSCLC): 7.06 µM
- TGI (HL-60(TB) leukemia): 3.37 µM
- TGI (HOP-18 NSCLC): 6.64 µM
- TGI (KM20L2 colon): 4.98 µM
- TGI (OVCAR-3 ovarian): 7.5 µM
- TGI (SNB-78 CNS): 12.6 µM
- TGI (SW-620 colon): 4.49 µM

SMILES: COc1ccc2nc(N/N=C/C(C)=N/Nc3cc(C)c4cc(OC)ccc4n3)cc(C)c2c1
- TGI (BT-549 breast): > 100 µM
- TGI (EKVX NSCLC): 40.2 µM
- TGI (HL-60(TB) leukemia): 40.6 µM
- TGI (M14 melanoma): 80.2 µM
- TGI (MDA-N): 55.5 µM
- TGI (OVCAR-3 ovarian): 53.6 µM
- TGI (PC-3 prostate): 45.6 µM
- TGI (SW-620 colon): 43.5 µM

SMILES: O=C(N/N=C(/c1ccccc1)C(F)(F)F)c1ccncc1
- TGI (BT-549 breast): > 100 µM
- TGI (HL-60(TB) leukemia): > 100 µM
- TGI (M14 melanoma): > 100 µM
- TGI (MDA-N): > 100 µM
- TGI (OVCAR-3 ovarian): > 100 µM
- TGI (PC-3 prostate): > 100 µM

SMILES: CCOC(=O)c1nc2ccc(Cl)cc2c2c1Cc1ccccc1-2
- TGI (DLD-1 colon): > 100 µM
- TGI (DMS 273 small cell lung): > 100 µM
- TGI (EKVX NSCLC): > 100 µM
- TGI (HOP-18 NSCLC): > 100 µM
- TGI (KM20L2 colon): > 100 µM
- TGI (M14 melanoma): > 100 µM
- TGI (OVCAR-3 ovarian): > 100 µM
- TGI (SNB-78 CNS): > 100 µM
- TGI (SW-620 colon): > 100 µM

SMILES: CCCc1[nH]c(SCCCCCCCCSc2nc(-c3ccc(F)cc3)c(CCC)[nH]2)nc1-c1ccc(F)cc1
- TGI (DMS 273 small cell lung): > 100 µM
- TGI (EKVX NSCLC): 52.5 µM
- TGI (HL-60(TB) leukemia): > 100 µM
- TGI (HOP-18 NSCLC): > 100 µM
- TGI (KM20L2 colon): > 100 µM
- TGI (M14 melanoma): > 100 µM
- TGI (OVCAR-3 ovarian): 12.9 µM
- TGI (SNB-78 CNS): > 100 µM
- TGI (SW-620 colon): > 100 µM

SMILES: N=c1c2c(C(N)=O)cn(C3OC(CO)C(O)C3O)c2ncn1O (configuration not stated)
- TGI (BT-549 breast): 4.61 µM
- TGI (EKVX NSCLC): 6.67 µM
- GI50 (HL-60(TB) leukemia): 0.191 µM
- TGI (HL-60(TB) leukemia): 0.659 µM
- TGI (M14 melanoma): 0.506 µM
- TGI (OVCAR-3 ovarian): 0.943 µM
- TGI (PC-3 prostate): 1.14 µM
- TGI (SW-620 colon): 0.497 µM

SMILES: N=C(N)c1ccc(-c2ccc(-c3cc(Cl)cc(Cl)c3)o2)nc1
- GI50 (HL-60(TB) leukemia): 2.42 µM
- TGI (HL-60(TB) leukemia): 4.62 µM
- GI50 (M14 melanoma): 1.9 µM
- TGI (M14 melanoma): 3.63 µM
- GI50 (OVCAR-3 ovarian): 1.88 µM
- TGI (OVCAR-3 ovarian): 3.39 µM
- GI50 (PC-3 prostate): 1.74 µM
- TGI (PC-3 prostate): 3.25 µM
- GI50 (SW-620 colon): 1.78 µM
- TGI (SW-620 colon): 3.41 µM

SMILES: COc1ccc2nc(-c3ccc(-c4noc(-c5cc(OC)c(OC)c(OC)c5)n4)cc3)[nH]c2c1
- GI50 (EKVX NSCLC): 26.2 µM
- TGI (EKVX NSCLC): 84.9 µM
- GI50 (HL-60(TB) leukemia): 20.2 µM
- TGI (HL-60(TB) leukemia): 81.7 µM
- GI50 (M14 melanoma): 5.47 µM
- TGI (M14 melanoma): 22.7 µM
- GI50 (OVCAR-3 ovarian): 4.25 µM
- TGI (OVCAR-3 ovarian): 12.9 µM
- GI50 (PC-3 prostate): 20.5 µM
- TGI (PC-3 prostate): > 100 µM
- GI50 (SW-620 colon): 5.89 µM
- TGI (SW-620 colon): 56.5 µM

SMILES: O=S(=O)(O)c1ccc2cccc(N=Nc3c(O)ccc4ccccc34)c2c1
- TGI (BT-549 breast): > 100 µM
- TGI (EKVX NSCLC): > 100 µM
- TGI (HL-60(TB) leukemia): > 100 µM
- TGI (M14 melanoma): > 100 µM
- TGI (MDA-N): > 100 µM
- TGI (OVCAR-3 ovarian): > 100 µM
- TGI (PC-3 prostate): > 100 µM
- TGI (SW-620 colon): > 100 µM

SMILES: CN(C)CC(=O)Nc1ccc(Cn2nnc3c2C(=O)c2nnn(Cc4ccc(NC(=O)CN(C)C)cc4)c2C3=O)cc1
- GI50 (HL-60(TB) leukemia): 0.074 µM
- TGI (HL-60(TB) leukemia): 0.5 µM
- GI50 (M14 melanoma): 0.14 µM
- TGI (M14 melanoma): 0.284 µM
- GI50 (OVCAR-3 ovarian): 0.0318 µM
- TGI (OVCAR-3 ovarian): 0.132 µM
- GI50 (PC-3 prostate): 0.253 µM
- TGI (PC-3 prostate): 0.825 µM
